Measured values: the supplement of paper PMC10307832

Key:
Assay in all cases: relative viability (nuclei count vs DMSO), 5 days (fraction); higher = more cells survive
[1] = test system: H3255
Method in brief: (§1)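 Relative viability divides the nuclei count in treated wells by that in vehicle wells. Lung cancer cell lines were seeded in 1536-well plates, dosed by pin tool the next day, and fixed and stained after 5 days in one step with final 0.05% Triton X-100, 1% formaldehyde and 1 ug/ml Hoechst. Dosing was a single drug or a fixed anchor-drug dose plus five library-drug doses (not always all listed) in √10 steps, and values are medians of duplicate plates imaged at 4×.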

[2] = test system: NCI-H2087
Method in brief: as §1

[3] = test system: NCI-H1395
Method in brief: as §1

[4] = test system: LC-2-ad
Method in brief: as §1

[5] = test system: NCI-H1944
Method in brief: as §1

[6] = test system: COR-L 105
Method in brief: as §1

[7] = test system: NCI-H661
Method in brief: as §1

[8] = test system: NCI-H1651
Method in brief: as §1

[9] = test system: PC-3 [JPC-3]
Method in brief: as §1

[10] = test system: NCI-H1915
Method in brief: as §1

[11] = test system: NCI-H1437
Method in brief: as §1

[12] = test system: NCI-H2347
Method in brief: as §1

[13] = test system: EMC-BAC-2
Method in brief: as §1

[14] = test system: EKVX
Method in brief: as §1

[15] = test system: NCI-H2085
Method in brief: as §1

[16] = test system: LK-2
Method in brief: as §1

[17] = test system: LXF-289
Method in brief: as §1

[18] = test system: CAL-12T
Method in brief: as §1

[19] = test system: NCI-H1755
Method in brief: as §1

[20] = test system: SK-LU-1
Method in brief: as §1

[21] = test system: SK-MES-1
Method in brief: as §1

[22] = test system: NCI-H1793
Method in brief: as §1

[23] = test system: NCI-H2228
Method in brief: as §1

Question: With `Cc1cnc(-c2cnc(NCCNc3ccc(C#N)cn3)nc2-c2ccc(Cl)cc2Cl)[nH]1` + CC(=O)Nc1cccc(-n2c(=O)n(C3CC3)c(=O)c3c(Nc4ccc(I)cc4F)n(C)c(=O)c(C)c32)c1 [Trametinib] (partner 0.02 µM) as the compound, how does the relative viability ([1]; first compound 0.08 µM) read?
Answer: 0.794

Question: What about the relative viability ([1]; first compound 0.253 µM) of the same compound?
Answer: 0.583

Question: And the relative viability ([1]; first compound 0.8 µM)?
Answer: 0.663

Question: And the relative viability ([1]; first compound 2.53 µM)?
Answer: 0.668

Question: What about the relative viability ([2]; first compound 0.08 µM) of the same compound?
Answer: 0.203

Question: And the relative viability ([2]; first compound 0.8 µM)?
Answer: 0.214

Question: What about the relative viability ([2]; first compound 2.53 µM) of the same compound?
Answer: 0.177

Question: What about the relative viability ([3]; first compound 0.08 µM) of the same compound?
Answer: 1.22

Question: And the relative viability ([3]; first compound 0.253 µM)?
Answer: 0.715

Question: And the relative viability ([3]; first compound 0.8 µM)?
Answer: 1.03

Question: What about the relative viability ([3]; first compound 2.53 µM) of the same compound?
Answer: 0.924

Question: And the relative viability ([4]; first compound 0.08 µM)?
Answer: 0.998

Question: And the relative viability ([4]; first compound 0.8 µM)?
Answer: 0.953

Question: And the relative viability ([4]; first compound 2.53 µM)?
Answer: 0.863

Question: And the relative viability ([5]; first compound 0.08 µM)?
Answer: 0.423

Question: What about the relative viability ([5]; first compound 0.8 µM) of the same compound?
Answer: 0.463

Question: What about the relative viability ([5]; first compound 2.53 µM) of the same compound?
Answer: 0.371

Question: And the relative viability ([6]; first compound 0.08 µM)?
Answer: 0.481

Question: What about the relative viability ([6]; first compound 0.253 µM) of the same compound?
Answer: 0.383

Question: What about the relative viability ([6]; first compound 0.8 µM) of the same compound?
Answer: 0.324

Question: And the relative viability ([6]; first compound 2.53 µM)?
Answer: 0.415

Question: And the relative viability ([7]; first compound 0.08 µM)?
Answer: 0.606

Question: And the relative viability ([7]; first compound 0.253 µM)?
Answer: 0.537

Question: What about the relative viability ([7]; first compound 0.8 µM) of the same compound?
Answer: 0.68

Question: And the relative viability ([7]; first compound 2.53 µM)?
Answer: 0.681

Question: What about the relative viability ([8]; first compound 0.08 µM) of the same compound?
Answer: 0.855

Question: What about the relative viability ([8]; first compound 0.253 µM) of the same compound?
Answer: 0.706

Question: What about the relative viability ([8]; first compound 0.8 µM) of the same compound?
Answer: 0.74

Question: What about the relative viability ([8]; first compound 2.53 µM) of the same compound?
Answer: 0.864

Question: And the relative viability ([9]; first compound 0.08 µM)?
Answer: 0.75

Question: What about the relative viability ([9]; first compound 0.253 µM) of the same compound?
Answer: 0.646

Question: What about the relative viability ([9]; first compound 0.8 µM) of the same compound?
Answer: 0.774

Question: What about the relative viability ([9]; first compound 2.53 µM) of the same compound?
Answer: 0.703

Question: And the relative viability ([10]; first compound 0.08 µM)?
Answer: 0.308

Question: And the relative viability ([10]; first compound 0.8 µM)?
Answer: 0.29

Question: What about the relative viability ([10]; first compound 2.53 µM) of the same compound?
Answer: 0.299

Question: What about the relative viability ([11]; first compound 0.08 µM) of the same compound?
Answer: 0.677

Question: And the relative viability ([11]; first compound 0.253 µM)?
Answer: 0.492

Question: And the relative viability ([11]; first compound 0.8 µM)?
Answer: 0.489

Question: And the relative viability ([11]; first compound 2.53 µM)?
Answer: 0.381

Question: And the relative viability ([12]; first compound 0.08 µM)?
Answer: 0.296

Question: And the relative viability ([12]; first compound 0.253 µM)?
Answer: 0.272

Question: What about the relative viability ([12]; first compound 0.8 µM) of the same compound?
Answer: 0.297

Question: What about the relative viability ([12]; first compound 2.53 µM) of the same compound?
Answer: 0.287

Question: And the relative viability ([13]; first compound 0.08 µM)?
Answer: 1.06

Question: What about the relative viability ([13]; first compound 0.253 µM) of the same compound?
Answer: 0.976

Question: What about the relative viability ([13]; first compound 0.8 µM) of the same compound?
Answer: 0.853

Question: What about the relative viability ([13]; first compound 2.53 µM) of the same compound?
Answer: 0.887

Question: And the relative viability ([14]; first compound 0.08 µM)?
Answer: 0.391

Question: What about the relative viability ([14]; first compound 0.253 µM) of the same compound?
Answer: 0.328

Question: And the relative viability ([14]; first compound 0.8 µM)?
Answer: 0.256

Question: And the relative viability ([14]; first compound 2.53 µM)?
Answer: 0.358

Question: And the relative viability ([15]; first compound 0.08 µM)?
Answer: 0.596

Question: And the relative viability ([15]; first compound 0.253 µM)?
Answer: 0.524

Question: What about the relative viability ([15]; first compound 0.8 µM) of the same compound?
Answer: 0.52

Question: What about the relative viability ([15]; first compound 2.53 µM) of the same compound?
Answer: 0.604

Question: What about the relative viability ([16]; first compound 0.08 µM) of the same compound?
Answer: 0.834

Question: And the relative viability ([16]; first compound 0.253 µM)?
Answer: 0.833

Question: What about the relative viability ([16]; first compound 0.8 µM) of the same compound?
Answer: 0.841

Question: And the relative viability ([16]; first compound 2.53 µM)?
Answer: 0.955

Question: And the relative viability ([17]; first compound 0.08 µM)?
Answer: 0.704

Question: And the relative viability ([17]; first compound 0.253 µM)?
Answer: 0.6

Question: And the relative viability ([17]; first compound 0.8 µM)?
Answer: 0.674

Question: What about the relative viability ([17]; first compound 2.53 µM) of the same compound?
Answer: 0.69

Question: And the relative viability ([18]; first compound 0.08 µM)?
Answer: 0.357

Question: What about the relative viability ([18]; first compound 0.253 µM) of the same compound?
Answer: 0.306

Question: And the relative viability ([18]; first compound 0.8 µM)?
Answer: 0.333

Question: And the relative viability ([18]; first compound 2.53 µM)?
Answer: 0.348

Question: And the relative viability ([19]; first compound 0.08 µM)?
Answer: 0.865

Question: What about the relative viability ([19]; first compound 0.253 µM) of the same compound?
Answer: 0.755

Question: And the relative viability ([19]; first compound 0.8 µM)?
Answer: 0.771

Question: What about the relative viability ([19]; first compound 2.53 µM) of the same compound?
Answer: 0.771

Question: And the relative viability ([20]; first compound 0.08 µM)?
Answer: 0.489

Question: What about the relative viability ([20]; first compound 0.253 µM) of the same compound?
Answer: 0.61

Question: And the relative viability ([20]; first compound 0.8 µM)?
Answer: 0.563

Question: What about the relative viability ([20]; first compound 2.53 µM) of the same compound?
Answer: 0.707

Question: And the relative viability ([21]; first compound 0.08 µM)?
Answer: 0.548

Question: And the relative viability ([21]; first compound 0.253 µM)?
Answer: 0.54

Question: What about the relative viability ([21]; first compound 0.8 µM) of the same compound?
Answer: 0.676

Question: And the relative viability ([21]; first compound 2.53 µM)?
Answer: 0.619

Question: What about the relative viability ([22]; first compound 0.08 µM) of the same compound?
Answer: 0.462

Question: And the relative viability ([22]; first compound 0.253 µM)?
Answer: 0.45

Question: What about the relative viability ([22]; first compound 0.8 µM) of the same compound?
Answer: 0.422

Question: And the relative viability ([22]; first compound 2.53 µM)?
Answer: 0.403

Question: And the relative viability ([23]; first compound 0.08 µM)?
Answer: 0.526

Question: And the relative viability ([23]; first compound 0.253 µM)?
Answer: 0.511

Question: And the relative viability ([23]; first compound 0.8 µM)?
Answer: 0.506

Question: What about the relative viability ([23]; first compound 2.53 µM) of the same compound?
Answer: 0.42
